Values quoted from earlier work, collected in patent publication US20070021304A1, “Non-salt glyphosate herbicide composition and method for preparing the same” (Sinon Corporation, priority 2005, published 2007).

Conditions: pH 1.9, 20° C.

Structure (SMILES): O=C(O)CNCP(=O)(O)O [Glyphosate]
- water solubility: approximately 10.5 g/L
